The text below walks through data of PMC7308088, “A moth odorant receptor highly expressed in the ovipositor is involved in detecting host-plant volatiles” (eLife, 2020).

Structures are written as SMILES.

The test deals with T1, HassOR31/HassORco (Helicoverpa assulta, UniProt A0A7D3UMA0).
T1 construct: with Odorant receptor coreceptor
T1 sequence (A0A7D3UMA0 1-395): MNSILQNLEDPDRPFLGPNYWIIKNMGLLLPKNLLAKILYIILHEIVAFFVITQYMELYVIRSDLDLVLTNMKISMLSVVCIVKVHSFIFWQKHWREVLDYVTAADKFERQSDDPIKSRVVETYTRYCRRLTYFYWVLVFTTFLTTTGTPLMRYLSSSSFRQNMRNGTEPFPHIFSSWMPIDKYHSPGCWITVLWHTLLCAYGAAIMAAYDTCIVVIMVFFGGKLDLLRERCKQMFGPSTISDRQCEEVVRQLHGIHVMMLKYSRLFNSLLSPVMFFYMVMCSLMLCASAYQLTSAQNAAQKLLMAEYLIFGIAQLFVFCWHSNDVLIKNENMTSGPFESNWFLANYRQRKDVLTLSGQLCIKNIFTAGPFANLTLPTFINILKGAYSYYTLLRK
T1 sequence (A7UGE1 1-473 partner): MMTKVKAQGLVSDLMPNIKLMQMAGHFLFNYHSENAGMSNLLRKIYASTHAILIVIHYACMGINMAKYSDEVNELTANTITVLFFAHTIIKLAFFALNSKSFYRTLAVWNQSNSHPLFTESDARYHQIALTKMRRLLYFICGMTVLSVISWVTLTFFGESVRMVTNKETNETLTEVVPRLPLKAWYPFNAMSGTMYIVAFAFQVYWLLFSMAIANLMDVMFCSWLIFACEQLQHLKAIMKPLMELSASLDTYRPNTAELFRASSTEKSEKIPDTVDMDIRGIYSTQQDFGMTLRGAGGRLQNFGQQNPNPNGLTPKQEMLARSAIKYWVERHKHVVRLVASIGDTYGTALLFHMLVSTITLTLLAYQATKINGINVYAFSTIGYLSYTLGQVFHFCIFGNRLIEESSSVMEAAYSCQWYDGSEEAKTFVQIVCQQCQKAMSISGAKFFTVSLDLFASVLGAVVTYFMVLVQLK
The test can be described thus: two-electrode voltage clamp, Xenopus oocytes, inward current. The format is cell-based.

Consider `CC/C=C\CCOC(=O)CCC` [Z-3-hexenyl butyrate], for which the midpoint of the response, the EC50, lay at 16.1 µM. This lies in the double-digit micromolar range.

The term EC50 denotes the concentration that produces a half-maximal response. A lower EC50 goes with an effect from little substance.
